The results in this text go back to PubChem BioAssay (NCI).

Test systems include CAKI-1 renal; HL-60(TB) leukemia; MOLT-4 leukemia; NCI-H23 lung; NCI-H522 lung; NCI/ADR-RES ovarian; OVCAR-3 ovarian; OVCAR-8 ovarian; PC-3 prostate; RPMI-8226 leukemia; SF-268 CNS; SF-295 CNS; SF-539 CNS; SK-MEL-2 melanoma; SK-MEL-5 melanoma; SR leukemia; TK-10 renal; U251 CNS; UACC-257 melanoma.
Common to all, as to assay: NCI-60 cell line screen, 48 h

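Briefly, cells in 96-well plates were exposed to five compound concentrations for 48 h, and endpoints were estimated by linear interpolation. TGI: concentration producing complete growth inhibition.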 Some results are limits rather than exact numbers.

As to `COc1ccc(OC)c(NC(=O)C(=O)Nn2c(=S)[nH]c3ccccc3c2=O)c1`, the TGI with CAKI-1 renal, in the experiment with HL-60(TB) leukemia, in the experiment with MOLT-4 leukemia, with NCI-H23 lung, in the experiment with NCI-H522 lung and in the experiment on NCI/ADR-RES ovarian was above 100 µM throughout. In addition, the TGI in the experiment on OVCAR-3 ovarian, in the experiment on OVCAR-8 ovarian, with PC-3 prostate, with RPMI-8226 leukemia, in the experiment with SF-268 CNS and in the experiment with SF-295 CNS was above 100 µM throughout. Besides, the TGI in the experiment on SF-539 CNS, in the experiment with SK-MEL-2 melanoma, in the experiment on SK-MEL-5 melanoma, with SR leukemia, in the experiment with TK-10 renal and in the experiment on U251 CNS was above 100 µM throughout. Besides, the TGI in the experiment on UACC-257 melanoma is above 100 µM.

`CC(C)C[C@H](NC(=O)CCc1ccccc1)B(O)O`: the TGI is 25.2 µM in the experiment with CAKI-1 renal; 8.8 µM in the experiment on HL-60(TB) leukemia; 11.4 µM with MOLT-4 leukemia; above 100 µM in the experiment on NCI-H23 lung; 31.1 µM in the experiment on NCI-H522 lung; 49.2 µM with NCI/ADR-RES ovarian. Moreover, the TGI was 17.4 µM in the experiment on OVCAR-3 ovarian; 46.2 µM in the experiment on OVCAR-8 ovarian; above 100 µM with PC-3 prostate; 6.11 µM with RPMI-8226 leukemia; 59.4 µM in the experiment on SF-268 CNS; 34.5 µM with SF-295 CNS. The TGI was 15.4 µM in the experiment with SF-539 CNS; 39.4 µM in the experiment on SK-MEL-2 melanoma; 22.8 µM with SK-MEL-5 melanoma; 9.8 µM in the experiment with SR leukemia; 55.8 µM with TK-10 renal; above 100 µM in the experiment on U251 CNS. In the experiment with UACC-257 melanoma, this compound displayed a TGI of 37.8 µM.

Turning to `c1ccc([C@@H]2N[C@@]3(CO[Si](c4ccccc4)(c4ccccc4)c4ccccc4)CC[C@H]4CN[C@@H]2[C@H]43)cc1`, the TGI in the experiment with CAKI-1 renal was 25.4 µM; in the experiment on HL-60(TB) leukemia it was 21.3 µM; in the experiment on MOLT-4 leukemia, above 100 µM; in the experiment with NCI-H23 lung, 30.5 µM; in the experiment with NCI-H522 lung, 16.1 µM; with NCI/ADR-RES ovarian, 32.4 µM. Also, the TGI in the experiment with OVCAR-3 ovarian stood at 27 µM; in the experiment with OVCAR-8 ovarian, 28.7 µM; in the experiment on PC-3 prostate, 21.3 µM; with RPMI-8226 leukemia it was 13.8 µM; in the experiment with SF-268 CNS it was 22.6 µM; in the experiment with SF-295 CNS, 25 µM. Further, the TGI is 28.6 µM with SF-539 CNS; 35.3 µM in the experiment with SK-MEL-2 melanoma; 19.2 µM with SK-MEL-5 melanoma; above 100 µM with SR leukemia; 30.5 µM in the experiment with TK-10 renal; 30.9 µM in the experiment with U251 CNS. In the experiment on UACC-257 melanoma, this compound yielded a TGI of 27.5 µM.

On to `N#CC1=C(C#N)/C(=C(\C#N)C(C#N)C#N)N=C1N`, for which the TGI with CAKI-1 renal was above 100 µM; with HL-60(TB) leukemia, 39.1 µM; with MOLT-4 leukemia it was 64.4 µM; with NCI-H23 lung, above 100 µM; with NCI-H522 lung it was 47.7 µM; with NCI/ADR-RES ovarian, above 100 µM. Moreover, the TGI is above 100 µM in the experiment with OVCAR-3 ovarian; above 100 µM with OVCAR-8 ovarian; above 100 µM in the experiment with PC-3 prostate; above 81.3 µM in the experiment on RPMI-8226 leukemia; above 100 µM in the experiment on SF-268 CNS; above 100 µM with SF-295 CNS. The TGI with SF-539 CNS was 54.5 µM; in the experiment on SK-MEL-2 melanoma it was 31.6 µM; in the experiment on SK-MEL-5 melanoma, 31.8 µM; with SR leukemia, 66.7 µM; in the experiment with TK-10 renal it was above 68.3 µM; in the experiment on U251 CNS it was above 100 µM. Also, in the experiment on UACC-257 melanoma, the TGI came to 51.7 µM.

As to `C/C(=N\NS(=O)(=O)c1ccc(C)cc1)C(CN(C)C)C(c1ccccc1)c1c(O)c2ccccc2oc1=O` (stereo not drawn), the TGI with CAKI-1 renal, in the experiment on HL-60(TB) leukemia, in the experiment with MOLT-4 leukemia, in the experiment on NCI-H23 lung, with NCI-H522 lung and in the experiment with NCI/ADR-RES ovarian was above 100 µM in each case. Moreover, the TGI with OVCAR-3 ovarian, in the experiment with OVCAR-8 ovarian, with PC-3 prostate, in the experiment with RPMI-8226 leukemia, in the experiment with SF-268 CNS and in the experiment on SF-295 CNS was above 100 µM each time. Besides, the TGI in the experiment on SF-539 CNS, in the experiment with SK-MEL-2 melanoma, in the experiment with SK-MEL-5 melanoma, with SR leukemia, in the experiment on TK-10 renal and in the experiment on U251 CNS was above 100 µM throughout. Also, the TGI in the experiment with UACC-257 melanoma was above 100 µM.

For the compound `CC(=O)OCC1OC(n2c3c(c(-c4ccc(Cl)cc4)c(C#N)c2=S)C(=O)CC(C)(C)C3)C(OC(C)=O)C(OC(C)=O)C1OC(C)=O` (stereo not drawn), the TGI in the experiment with CAKI-1 renal is above 31.9 µM; with HL-60(TB) leukemia, above 61.1 µM; with MOLT-4 leukemia, above 100 µM; with NCI-H23 lung it was above 100 µM; with NCI-H522 lung it was above 58.1 µM; with NCI/ADR-RES ovarian, above 67.8 µM. In addition, the TGI in the experiment with OVCAR-3 ovarian was above 74 µM; with OVCAR-8 ovarian it was 51.8 µM; in the experiment on PC-3 prostate, 63.6 µM; in the experiment on RPMI-8226 leukemia, above 100 µM; in the experiment with SF-268 CNS, 29 µM; in the experiment on SF-295 CNS, above 100 µM. Besides, the TGI in the experiment with SF-539 CNS was above 68.7 µM; in the experiment on SK-MEL-2 melanoma, 46.4 µM; in the experiment with SK-MEL-5 melanoma it was 48.2 µM; in the experiment on SR leukemia, above 100 µM; in the experiment on TK-10 renal, above 100 µM; in the experiment on U251 CNS it was 50.3 µM. Moreover, the TGI in the experiment on UACC-257 melanoma was determined as 42.8 µM.

Regarding `Cc1ccc(S(=O)(=O)NC(=O)NCC(=O)NCC(=O)O)cc1`, the TGI with CAKI-1 renal, with HL-60(TB) leukemia, with MOLT-4 leukemia, in the experiment with NCI-H23 lung, in the experiment on NCI-H522 lung and in the experiment on NCI/ADR-RES ovarian was above 100 µM each time. The TGI in the experiment on OVCAR-3 ovarian, in the experiment with OVCAR-8 ovarian, in the experiment with PC-3 prostate, with RPMI-8226 leukemia, in the experiment on SF-268 CNS and in the experiment on SF-295 CNS was above 100 µM throughout. Also, the TGI in the experiment with SF-539 CNS, with SK-MEL-2 melanoma, in the experiment with SK-MEL-5 melanoma, in the experiment with SR leukemia, in the experiment on TK-10 renal and in the experiment on U251 CNS was above 100 µM each time. Further, the TGI in the experiment on UACC-257 melanoma was above 100 µM.
